Experimental data from paper PMC11312813, “An Optimized Peptide Antagonist of CXCR4 Limits Survival of BCR–ABL1-Transformed Cells in Philadelphia-Chromosome-Positive B-Cell Acute Lymphoblastic Leukemia” (International Journal of Molecular Sciences, 2024).
Counter-ions that a name gives are not always drawn.

What was measured:
CXCR4 [1] = assay: Anti-CXCR4 antibody (clone L276F12) competition assay in BCR–ABL1-transformed mouse B cells; type: binding; conditions: 2 h at 4 °C, FACS, n = 3; for Anti-CXCR4 antibody binding to CXCR4: serially diluted 10 µM to 1 nM
Description: (§1) An anti-CXCR4 competition assay was conducted as previously described. […] Afterward, the cells were washed to remove unbound inhibitors and antibody, and measured via FACS for the fluorescence signal of the bound antibody. The fluorescence signal corresponding to only antibody (no inhibitor) was considered to be 100% antibody binding.

CXCR4 [2] = conditions: ref [14],[17]; cited from earlier work
[3] = tested on: BCR–ABL1-transformed mouse B cells; assay: Real-time cell growth analysis by IncuCyte (GFP+ cell enrichment); type: cell-based; conditions: over 96 h
Description: A flat-bottom 96-well plate was coated with 0.01% poly-L ornithine (#P4957, Sigma-Aldrich, Hamburg, Germany) for 1 h at room temperature (RT). […] The cells were plated in 100 μL complete medium. […] Plate was prewarmed at 37 °C for 30 min prior to placing in the IncuCyte chamber. Scanning was conducted every two hours for total of 4 days.

[4] = tested on: AKT phosphorylation (PI3K signaling downstream of CXCR4); assay: Western blot, AKT S473 phosphorylation in BCR–ABL1 cells; type: cell-based; conditions: 10 µM, 100 ng/mL mouse CXCL12, 5 min; n = 3
Description: BCR–ABL1 cells were collected as 5 × 10^6 cells/500 μL complete media and treated either with DMSO or different inhibitors in the absence and presence of 100 ng/mL mouse CXCL12 for 5, 15, and 30 min at 37 °C. Cells were then immediately transferred onto ice to stop the reaction and washed with ice-cold PBS. Cell extract was prepared by resuspending the cell pellet in 100 μL of radio-immunoprecipitation assay (RIPA) buffer supplemented with 1X protease inhibitor cocktail (#78429, Thermo Fisher), 1 mM sodium orthovanadate (Sigma-Aldrich), and 10 mM beta-glycerophosphate (Sigma-Aldrich). For each treatment, 15 μL of cell extract was mixed with 5 μL of 4X Laemmli buffer (reducing), boiled at 95 °C for 10 min, and run on 10% SDS-PAGE. Gels were wet-transferred to PVDF membranes (Millipore, Burlington, MA, USA) and stained with 0.1% ponceau-S solution to check for efficient blotting. The membranes were blocked with 3% BSA solution and incubated with primary antibodies at 4 °C overnight. The next day, primary antibodies were washed, and membranes were probed with horseradish peroxidase (HRP)-conjugated secondary antibodies at RT for 2 h. After washing, the blots were developed using Immobilon ECL Ultra Western HRP Substrate (#WBULS0500, Millipore), and images were acquired with a Fusion SL gel imaging system (Vilber Lourmat, Eberhardzell, Germany). […]

CXCR4 [5] = assay: Anti-CXCR4 antibody (clone 12G5) competition assay in SupB15 cells; type: binding, human; conditions: increasing concentrations (1 nM to 10 µM), n = 2–3
Description: as §1

[6] = tested on: BCR–ABL1-transformed mouse B cells; assay: Cell proliferation assay (cell trace dye dilution); type: cell-based; conditions: 10 µM, 48 and 72 h; n = 3
Description: BCR–ABL1 cells were collected at 0.5 × 10^5 cells/well of a 96-well plate and labeled with cell trace far red cell proliferation dye (#C34564, Invitrogen, Dreieich, Germany), according to the manufacturer’s instructions. Labeled cells were plated in 100 μL of complete media and were mixed with equal volume of 2X DMSO or inhibitor-containing media. A small part of the labeled cells was measured in FACS to determine the fluorescence signal on day 0. After specific time periods (48 and 72 h), cells were collected, washed with FACS buffer, and analyzed using LSR-Fortessa (BD Bioscience).

[7] = tested on: TKO-EV cells (untransformed mouse BM pro-B cells); assay: Real-time cell growth analysis by IncuCyte, untransformed TKO-EV cells; conditions: 1, 5 and 10 µM, 96 h; n = 3
Description: A flat-bottom 96-well plate was coated with 0.01% poly-L ornithine (#P4957, Sigma-Aldrich, Hamburg, Germany) for 1 h at room temperature (RT). BCR–ABL1, SupB15, and 697 cells were counted as 0.5 × 10^5 cells/well, while TKO-BCR–ABL1 and TKO-EV cells as 1 × 10^5 cells/well, which were labeled with IncuCyte Cytotox Red dye (#4632, Sartorius, Ulm, Germany) as per the manufacturer’s protocol. The cells were plated in 100 μL complete medium. […] Plate was prewarmed at 37 °C for 30 min prior to placing in the IncuCyte chamber. Scanning was conducted every two hours for total of 4 days. Images were acquired using a 20X objective in phase contrast and fluorescence mode at 4 images/well and analyzed using the cell-by-cell analysis module of IncuCyte software version 2020B (Essen Bioscience, Ann Arbor, MI, USA).

caspase 8 = assay: Caspase-Glo 8 activation assay in BCR–ABL1 cells; type: cell-based, mouse; conditions: 10 µM; n = 3
Description: BCR–ABL1 cells were plated at 0.5 × 10^5 cells/well of a 96-well plate in 100 μL of complete media and treated with DMSO or various inhibitors. At specific time points (24, 48 and 72 h), activation of caspases was measured with a Caspase-Glo® 3/7 Assay (#G8090) and Caspase-Glo® 8 Assay (#G8200, Promega, Madison, WI, USA) following the manufacturer’s instructions.

697 cells [8] = assay: Real-time cell growth by IncuCyte, 697; type: cell-based, human; conditions: 10 µM, 96 h; n = 3
Description: (§2) The cells were plated in 100 μL complete medium.

SupB15 cells = assay: Real-time cell growth by IncuCyte, SupB15; type: cell-based, human; conditions: 10 µM, 96 h; n = 3
Description: as §2

[9] = tested on: Imatinib-resistant Ph+ ALL primary xenograft cells; assay: Real-time cell growth by IncuCyte, primary Ph+ ALL xenograft cells; type: cell-based, human; conditions: 10 µM, 6 days; n = 2
Description: Animals showing clinical symptoms of leukemia or with >75% leukemic blasts in blood were sacrificed, and total splenic cells were isolated and frozen for future use.
For Ph^+ ALL cells isolated from the xenografted NSG mice, frozen cells were thawed and cultured in MEM-alpha (Gibco) media supplemented with 20% FBS and 100 units/mL of penicillin/streptomycin for 5–16 h in a 5% CO2 incubator. Next, the cells were overlaid on 10 mL Ficoll-Paque™PLUS (#17144003, Cytiva, Freiburg, Germany) in 50 mL tubes and centrifuged at 400 g without break for 10 min at RT. The cells were collected from the interface of Ficoll and media and washed once with PBS. Viable cells were counted and plated into previously coated 48-well plates at 4.25 × 10^5 cells/well in 250 μL of media with or without the inhibitors. Scanning was conducted every two hours for total of 6 days in phase contrast mode and analyzed using the cell-by-cell analysis module of IncuCyte software version 2020B (Essen Bioscience).

697 cells [10] = assay: Flow cytometric cell survival analysis, 697; type: cell-based, human; conditions: 10 µM; n = 3
Description: Cells treated with either solvent control DMSO or different concentrations of inhibitors for different time points were collected and washed with ice-cold PBS. Cells were then stained with efluor 450-labeled fixable viability dye (FVD, #65-0863-14, eBioscience, San Diego, CA, USA) at 1:1000 dilution at 4 °C or using 50 μg/mL propidium iodide (PI, #P3566, Thermo Fisher, Dreieich, Germany) solution at RT for 15 min in the dark. After washing, labeled cells were resuspended in 100 μL of PBS and acquired using LSR-Fortessa (BD Bioscience, Heidelberg, Germany). FACS data were analyzed with FlowJo software version 10.0.

[11] = tested on: WT mouse BM-derived B cells; assay: Real-time cell growth, normal WT mouse BM-derived B cells; type: cell-based; conditions: 10 µM JM#170, 10 µM AMD3100, 1 µM Imatinib; 96 h; n = 2
Description: as §2

Compound	Concentration effective in inhibiting antibody binding to CXCR4 (CXCR4 [1])	Anti-CXCR4 antibody binding to CXCR4 (CXCR4 [1])	CXCL12-induced calcium signaling (CXCR4 [2])	GFP enrichment (BCR–ABL1 cell growth) vs DMSO ([3]; 5 µM)	GFP enrichment (BCR–ABL1 cell growth) vs DMSO ([3]; 10 µM, mean ± SEM, n = 4–5)	CXCL12-induced AKT S473 phosphorylation [4]	12G5 antibody binding to CXCR4 (CXCR4 [5])	Proliferation of BCR–ABL1 cells (dye dilution) vs DMSO [6]	Survival/growth of TKO-EV cells [7]	Caspase 8 activation vs DMSO (caspase 8)	697 cell growth vs DMSO (697 cells [8])	SupB15 cell growth vs DMSO (SupB15 cells)	Growth of Ph+ ALL xenograft cells vs DMSO [9]	697 cell survival vs DMSO (697 cells [10])	Growth of normal WT mouse BM-derived B cells [11]
c1cc(CN2CCCNCCNCCCNCC2)ccc1CN1CCCNCCNCCCNCC1 [AMD3100, AMD3100 octahydrochloride hydrate, reference compound]	~ 1 μM	significantly inhibited the antibody binding	block the intracellular calcium response	also detectable	only distinct at later time points	this elevation was blocked	significantly inhibited 12G5 binding	significantly reduced the proliferation	neither JM#170 nor AMD3100 had any effect	neither JM#170 nor AMD3100 induced caspase 8	–	–	–	–	–
ILRWSRK * (Pal)-NH2 [JM#170, lipid-conjugated truncated version of EPI-X4, CXCR4 antagonist]	~ 10 nM	significantly inhibited the antibody binding	block CXCL12-induced calcium signaling	–	significant reduction in GFP enrichment	this elevation was blocked	significantly inhibited 12G5 binding	no effect on proliferation	–	neither JM#170 nor AMD3100 induced caspase 8	no effect on the 697 cells	significantly reduced SupB15 cell growth	significant growth inhibitory effect	no effect on the survival of these cells	remained inactive against the WT B cells
